Results from paper PMC6736568, “Discovery of Novel Anti-cryptosporidial Activities From Natural Products by in vitro High-Throughput Phenotypic Screening” (Frontiers in Microbiology, 2019).
Structures can show the parent of a compound that is named as a salt. Where two headings read alike, the source gives them in different places.

Key:
[1] = tested on: Cryptosporidium parvum; test: qRT-PCR assay of the growth of C. parvum in vitro in HCT-8 host cells (primary and secondary screening, EC50); format: cell-based; details: Cryptosporidium parvum, HCT-8; for inhibition at 10 µM: primary screening at 10 uM, read-out: Inhibition (%); for inhibition at 3.3 µM: secondary screening at 3.3 uM, read-out: % Inhibition (3.3 uM)
[2] = tested on: HCT-8 host cells (Hs18S)
[3] = in vitro
[4] = primary screening at 10 uM, treated vs control

Row | Structure (SMILES) | Hs18S ΔCT ([2]; human, 41 h, 10 μM) | inhibition at 10 µM [1] | cytotoxicity at 41 h, 10 µM ([3]; human) | Hs18S ΔCT [2, 4] | cytotoxicity at 41 h, 10 µM [3] | inhibition at 3.3 µM [1] | cytotoxicity at 10 µM [3]
1 | CC[C@H](CC[C@@H](C)[C@H]1CC[C@H]2[C@@H]3CC=C4C[C@@H](OC(C)=O)CC[C@]4(C)[C@H]3CC[C@]12C)C(C)C [SITOSTERYL ACETATE] | -0.17 | -3.86% | -12.4% | – | – | – | –
2 | COc1ccc(-c2coc3cc(O)ccc3c2=O)c(OC)c1 [2'-METHOXYFORMONETIN] | 0.18 | 12.9% | 11.5% | – | – | – | –
3 | C[C@H](CCC(=O)O)[C@H]1CC[C@H]2[C@@H]3CC[C@@H]4CCCC[C@]4(C)[C@H]3CC[C@]12C [URSOCHOLANIC ACID] | – | 59.3% | – | -0.10 | -6.9% | – | –
4 | CC(=O)O[C@H]1CC[C@@]2(C)[C@@H](CC[C@@H]3[C@@H]2CC(=O)[C@]2(C)[C@@H]4[C@H](C[C@@H]32)O[C@]2(CC[C@@H](C)CO2)[C@H]4C)C1 [HECOGENIN ACETATE] | -0.05 | 6.66% | -3.7% | – | – | – | –
5 | COc1cc2c(cc1OC)[C@@H]1C(=O)c3ccc4oc(C(C)C)cc4c3O[C@@H]1CO2 [ISOROTENONE] | – | 2.53% | – | 0.71 | – | – | 38.9%
6 | CN1CCCCC1c1ccc(-c2cccnc2)nc1 (stereo not drawn) [ANABASAMINE HYDROCHLORIDE] | – | 8.75% | – | 0.40 | – | – | 24.3%
7 | CC1(C)CC2C1CCC1(C)OC1CCC2(C)O (stereo not drawn) [2-HYDROXY-5 (6)EPOXY-TETRAHYDROCARYOPHYLLENE] | -0.15 | 46.2% | -10.9% | – | – | – | –
8 | C[C@]12CC[C@@H](O)C[C@H]1CCc1ccccc12 [3alpha-HYDROXY-4,4-BISNOR-8,11,13-PODOCARPATRIENE] | -0.06 | -50.2% | -4.1% | – | – | – | –
9 | CC(C)=CCC[C@@H](C)[C@@H]1CC[C@]2(C)C3=C(CC[C@@]12C)[C@@]1(C)CC[C@H](O)C(C)(C)[C@@H]1CC3 [EUPHOL] | -0.29 | -2.84% | -22.5% | – | – | – | –
10 | COc1ccc2cc1Oc1ccc(cc1)C[C@H]1c3cc(c(OC)cc3CCN1C)Oc1c(OC)c(OC)cc3c1[C@H](C2)N(C)CC3 [TETRANDRINE] | -0.04 | 80.4% | -2.5% | – | – | 1% | –
11 | CC(C)(O)[C@@H]1[C@H]2OC(=O)[C@@H]1[C@]1(O)C[C@H]3O[C@]34C(=O)O[C@H]2[C@]14C [PICROTIN] | – | -1.94% | – | -0.20 | – | – | -14.8%
12 | C[C@H]1COC2=C1C(=O)C(=O)c1c2ccc2c1CCCC2(C)C [CRYPTOTANSHINONE] | – | 95.3% | – | 0.18 | – | -85% | 11.9%
13 | Oc1cc2c(cc1O)C1c3ccc(O)c(O)c3OCC1(O)C2 (stereo not drawn) [HAEMATOXYLIN] | 0.00 | -27.2% | 0.1% | – | – | – | –
14 | CC(=O)O[C@H]1C(=O)[C@@]2(C)[C@H]([C@H](OC(=O)c3ccccc3)[C@]3(O)C[C@H](O)C(C)=C1C3(C)C)[C@]1(OC(C)=O)CO[C@@H]1C[C@@H]2O [BACCATIN III] | – | 1.76% | – | 0.08 | – | – | 5.2%
15 | C=C[C@@H](C1=CC(=O)C(OC)=C(OC)C1=O)c1ccccc1 [3,4-DIMETHOXYDALBERGIONE] | 0.06 | 11.6% | 3.8% | – | – | – | –
16 | COC(=O)C1=CCCN(C)C1 [ARECOLINE HYDROBROMIDE] | – | -6.72% | – | -0.47 | – | – | -38.7%
17 | COc1cc2c(cc1OC)[C@@H]1C(=O)c3ccc4c(c3O[C@@H]1CO2)CC(C(C)C)O4 (stereo partly drawn) [DIHYDROROTENONE] | – | 10.4% | – | 0.76 | – | – | 40.9%
18 | C[C@H]1O[C@H](O[C@H]2[C@H](O)[C@@H](O)[C@@H](O[C@H]3[C@H](O)[C@@H](O)C(O)O[C@@H]3CO)O[C@@H]2CO)[C@H](O)[C@@H](O)[C@@H]1N[C@H]1C=C(CO)[C@@H](O)[C@H](O)[C@H]1O (stereo partly drawn) [ACARBOSE] | 0.39 | 37.8% | 23.6% | – | – | – | –

Further lines, with some results ahead:

Row | Hs18S ΔCT ([2]; human, 41 h, 10 μM) | Structure (SMILES) | inhibition at 10 µM [1] | cytotoxicity at 41 h, 10 µM ([3]; human) | Hs18S ΔCT [2, 4] | cytotoxicity at 41 h, 10 µM [3] | inhibition at 3.3 µM [1] | cytotoxicity at 10 µM [3]
19 | 0.50 | COC(=O)[C@H]1[C@H]2C[C@@H]3c4[nH]c5cc(OC)ccc5c4CCN3C[C@H]2C[C@@H](OC(=O)c2cc(OC)c(OC)c(OC)c2)[C@@H]1OC [RESERPINE] | 87% | 29.4% | – | – | 24% | –
20 | -0.20 | CC(C)(c1ccc(O)cc1)c1ccc(O)cc1 [BISPHENOL A] | -35.2% | -15% | – | – | – | –
21 | 0.02 | CC(C)=CCC/C(C)=C/CC/C(C)=C/CO [FARNESOL] | 8.75% | 1% | – | – | – | –
22 | -0.27 | COc1c2ccoc2cc2oc(C)cc(=O)c12 [VISNAGIN] | 15.1% | -20.7% | – | – | – | –
23 | -0.08 | CC1=CC(=O)C(C(C)C)=CC1=O [THYMOQUINONE] | 3.13% | -5.8% | – | – | – | –
24 | -0.63 | NCCCCNCCCN [SPERMIDINE TRIHYDROCHLORIDE] | 23.9% | -54.4% | – | – | – | –
25 | 0.16 | NC(C(=O)O)C(O)C(=O)O (stereo not drawn) [d,l-threo-3-HYDROXYASPARTIC ACID] | 17.8% | 10.7% | – | – | – | –
26 | 0.01 | CC(=O)O[C@H]1CC[C@]2(C)[C@H]3CC=C4[C@@H]5CC(C)(C)CC[C@]5(C)CC[C@@]4(C)[C@]3(C)CC[C@H]2C1(C)C [beta-AMYRIN ACETATE] | 11.3% | 0.5% | – | – | – | –
27 | 0.03 | O=C1C=C2CC3(O)COc4cc(O)ccc4C3=C2C=C1O (stereo not drawn) [BRAZILEIN] | -12.2% | 2.2% | – | – | – | –
28 | 0.55 | CC(=O)OC1CCC23CC1(C)CCC2C(C)(C)CC3OC(C)=O (stereo not drawn) [CLOVANEDIOL DIACETATE] | -0.83% | 31.9% | – | – | – | –
29 | -0.10 | COc1cc(O)c2c(=O)cc(C)oc2c1CC=C(C)C [HETEROPEUCENIN, METHYL ETHER] | -96.3% | -7.2% | – | – | – | –
30 | -0.35 | Nc1ncnc2c1ncn2[C@H]1C[C@H](O)[C@@H](CO)O1 [DEOXYADENOSINE] | 44.5% | -27.3% | – | – | – | –
31 | 0.09 | C/C(=C\C(=O)OCCCCCCCCC(=O)O)C[C@@H]1OC[C@H](C[C@@H]2O[C@H]2[C@@H](C)[C@H](C)O)[C@@H](O)[C@H]1O [MUPIROCIN] | 45.6% | 5.8% | – | – | – | –
32 | 0.01 | COc1ccc(C(C)=O)c(O)c1 [PAEONOL] | -10.4% | 0.8% | – | – | – | –
33 | 0.00 | COC(=O)c1cc(OC)c(=O)c2c(OC)c(OC)ccc2c1 [METHYL 7-DESOXYPURPUROGALLIN-7-CARBOXYLATE TRIMETHYL ETHER] | -15.9% | 0.1% | – | – | – | –
34 | 0.00 | COc1cc(-c2coc3cc(OCc4ccccc4)c(OC)c(O)c3c2=O)cc(OCc2ccccc2)c1OC [IRIGENIN, DIBENZYL ETHER] | -15.7% | 0% | – | – | – | –
